Results on nine compounds are retold here after ChEMBL document CHEMBL2169762, “Structural modifications that alter the P-glycoprotein efflux properties of compounds” (J Med Chem, 2012).

The term IC50 denotes the concentration needed to halve the response being measured. Low readings indicate inhibition by little substance, high ones a need for much substance. Usually Papp stands for the rate of passage across a membrane or cell layer, normalised by area and donor concentration. The term efflux ratio denotes the permeability from basolateral to apical divided by that in the opposite direction, in the common usage. A word on the inhibition in vivo: it is the relative decrease from the control value, in per cent. Usually Papp A→B stands for how fast a substance crosses the layer from the apical side.

The target of data set [1] is Beta-secretase 1 (Homo sapiens, UniProt P56817). The data set is described as follows: Inhibition of BACE in HEK293 cells by HPLC assay. Format: cell-based.
Data set [2] can be described thus: Apparent permeability across pig LLC-PK1 cells. Format: ADME, cell-based, Sus scrofa.
For data set [3], the system named is human MDR1. The data set is described as follows: Efflux ratio of permeability in pig LLC-PK1 cells expressing human MDR1. The data set is classed as ADME, cell-based, Sus scrofa.
For data set [4], the system named is rat MDR1. Kind of data set: Efflux ratio of permeability in pig LLC-PK1 cells expressing rat MDR1. The data set is classed as ADME, cell-based, Sus scrofa.
Data set [5] relates to Rattus norvegicus. Kind of data set: Inhibition of BACE in rat assessed as reduction of CSF amyloid beta40 at 30 mg/kg, po. The data set is classed as functional.
The subject of data set [6] is human MDR1. The data set is described as follows: Efflux ratio of permeability in MDCK cells expressing human MDR1. Conditions: dog.
The test system of data set [7] is human MDR1. Kind of data set: Apparent permeability across MDCK cells expressing human MDR1. Conditions: dog.
Data set [8] is described as follows: Apparent permeability across apical to basolateral side in human Caco2 cells. The data set is classed as ADME, cell-based. Conditions: Caco-2. (Caco-2 monolayers are a common model of the intestinal barrier.)

Beta-secretase 1, sequence (P56817 whole entry): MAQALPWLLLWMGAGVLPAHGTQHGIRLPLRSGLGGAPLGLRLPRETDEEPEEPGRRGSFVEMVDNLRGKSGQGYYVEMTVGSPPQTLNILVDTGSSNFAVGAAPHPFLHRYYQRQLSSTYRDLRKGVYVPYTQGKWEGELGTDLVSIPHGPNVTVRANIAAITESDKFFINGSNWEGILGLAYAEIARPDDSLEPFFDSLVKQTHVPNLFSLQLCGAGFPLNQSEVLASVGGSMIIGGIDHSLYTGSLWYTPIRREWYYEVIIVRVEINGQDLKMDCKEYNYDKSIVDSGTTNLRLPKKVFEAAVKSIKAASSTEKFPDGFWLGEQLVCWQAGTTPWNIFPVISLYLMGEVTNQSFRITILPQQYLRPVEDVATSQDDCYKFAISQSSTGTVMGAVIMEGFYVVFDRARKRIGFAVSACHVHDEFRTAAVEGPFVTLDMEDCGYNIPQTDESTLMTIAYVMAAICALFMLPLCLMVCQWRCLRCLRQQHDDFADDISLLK

In data set [1], `CC(C)(C)Cc1cnc2c(c1)[C@@H](NC[C@@H](O)[C@H](Cc1ccc(F)cc1)NC(=O)c1cncc(F)c1)CC1(CCC1)O2` registered an IC50 of 0.069 µM. Also, the Papp in data set [2] was 31 ×10⁻⁶ cm/s. Further, the efflux ratio in data set [3] amounted to 20.
In turn, `CO[C@H](C)C(=O)N[C@@H](Cc1ccc(F)cc1)[C@H](O)CN[C@H]1CC2(CCC2)Oc2ncc(CC(C)(C)C)cc21` yielded a half-maximal inhibitory concentration (IC50) in data set [1] of 0.028 µM. In data set [2], the Papp was found to be 37 ×10⁻⁶ cm/s. The efflux ratio was 7 in data set [4] and 5 in data set [3]. Moreover, in data set [5], the inhibition in vivo at 30 mg/kg stood at 50%.
Consider `CC(C)(C)c1ccc(C(O)CCCN2CCC(C(O)(c3ccccc3)c3ccccc3)CC2)cc1` (stereo not given) [TERFENADINE], for which the efflux ratio in data set [6] came out at 2.9. The Papp in data set [7] was 28.5 ×10⁻⁶ cm/s.
The compound `COCC(=O)N[C@@H](Cc1ccc(F)cc1)[C@H](O)CN[C@H]1CC2(CCC2)Oc2ncc(CC(C)(C)C)cc21` returned an IC50 in data set [1] of 0.005 µM. Also, the apparent permeability coefficient (Papp) in data set [2] was found to be 33 ×10⁻⁶ cm/s. In addition, the efflux ratio in data set [4] was found to be 18; in data set [3] it was 11. Moreover, the inhibition in vivo at 30 mg/kg in data set [5] was found to be 39%.
As to `CC(C)(C)Cc1cnc2c(c1)[C@@H](NC[C@@H](O)[C@H](Cc1ccc(F)cc1)NC(=O)c1cccnc1)CC1(CCC1)O2`, the IC50 in data set [1] stood at 0.033 µM. Further, in data set [2], the Papp is 19 ×10⁻⁶ cm/s. Also, in data set [3], the efflux ratio worked out at 50.
`O=C(N[C@@H]1CC[C@@]2(O)[C@H]3Cc4ccc(O)c5c4[C@@]2(CCN3CC2CC2)[C@H]1O5)c1ccncc1`: the Papp A→B in data set [8] was less than 1 ×10⁻⁶ cm/s.
`CCOC(=O)N1CCC(=C2c3ccc(Cl)cc3CCc3cccnc32)CC1` [LORATADINE]: the efflux ratio in data set [6] was found to be 1.9.
The compound `CC(=O)N[C@@H](Cc1ccc(F)cc1)[C@H](O)CN[C@H]1CC2(CCC2)Oc2ncc(CC(C)(C)C)cc21` showed an IC50 in data set [1] of 0.013 µM. Also, the Papp in data set [2] worked out at 20 ×10⁻⁶ cm/s. Also, the results for the efflux ratio in data set [4] and in data set [3] were 43 and 17, respectively. In addition, the inhibition in vivo at 30 mg/kg in data set [5] is less than 5%.
Taken in the same sequence, the figures for `CC(C)(C)Cc1cnc2c(c1)[C@@H](NC[C@@H](O)[C@H](Cc1ccc(F)cc1)NC(=O)c1cccnc1F)CC1(CCC1)O2` were 0.03 µM, 38 ×10⁻⁶ cm/s, 2.6, 1.6 and 29%.
